Patent US11427596B2, “Metal-free solvent-free synthesis of fused-pyrido heterocycles and biomedical applications” (Indian Institute of Technology Indore, priority 2019, dated 2022)
Where “and” joins values, the source holds several entries; their conditions need not be identical. Equal entries are not always repeated.

Experiments:
[1] = tested on: HeLa; assay: Crystal violet cytotoxicity assay, HeLa; format: cell-based; details: Homo sapiens, 48 h incubation, triplicate
Procedure: (§1) FIG. 16 illustrates dose vs response curves of carbolines 18ac, 18bc, 18da and 18fa in HeLa, MCF-7, HEK293, A431 and A549 cell lines for 48 h incubation. IC50 values were determined by standard crystal violet assay in triplicate, according to the embodiments as disclosed herein. In vitro studies: The cytotoxicity of novel carboline derivatives 18ac, 18bc, 18da and 18fa were tested through standard crystal violet assay on human malignant cell lines such as HeLa, MCF-7, HEK293, A431 and A549. Cells were plated in a 96 well plate (1800 cells per well) and incubated for 48 h at 37° C. under 5% CO2. At 50% confluency, cells were incubated with a series of concentrations (0.1 μM, 0.25 μM, 0.5 μM, 1 μM, 2.5 μM, 5 μM, 10 μM, 25 μM, 50 μM and 100 μM) of the carbolines 18ac, 18bc, 18da and 18fa, respectively, for 48 h.
(§2) Procedure for cytotoxicity assay of carbolines in cancer cell lines: For this purpose, carbolines 18ac, 18bc, 18da and 18fa were subjected to a standard cell viability study (Crystal Violet assay) for examining anticancer activity against various human cancer cell lines such as HeLa, MCF-7, HEK293, A431 and A549. Crystal Violet is a triarylmethane dye which stains adhered cells by binding to the […]. The amount of Crystal Violet stain in the assay is directly proportional to the live cell biomass adhered on the plate after repeated washing. The above human cancer cell lines were plated in a 96-well tissue culture plate (1800 cells/well,) and incubated for 48 h in RPMI 1640 medium (volume≥100 μL/well), supplemented with 10% heat inactivated fetal bovine serum (HIFBS) and 1% Penicillin-Streptomycin antibiotic at 37° C., 5% CO2. Once the monolayer achieved 50% confluency/well, spent medium was aspirated and replaced with fresh medium≥100 μL/well, supplemented with increasing concentrations of carbolines 18ac, 18bc, 18da and 18fa (0.1 μM, 0.25 μM, 0.5 μM, 1 μM, 2.5 μM, 5 μM, 10 μM, 25 μM, 50 μM and 100 μM), respectively, and incubated for 48 h, at 37° C., 5% CO2. For positive control, 40% DMSO in culture medium was added to three wells and incubated under identical conditions. […] Finally, optical density of each well was measured at 570 nm (OD570) using Synergy H1 multimode plate reader (BioTek Instruments, Inc., Winooski, Vt., USA). The average background OD570 of empty wells was measured and subtracted from OD570/well on the plate. The percentage of treated, viable cells (attached) was determined and a dose vs response curve was plotted as semi-log[conc] vs percentage of normalized cell viability using GraphPad Prism v. […] The half maximal inhibitory concentration (IC50) was calculated and shown in Table 3 for carbolines 18ac, 18bc, 18da and 18fa against various human cancer cell lines (FIG. 16).

[2] = tested on: MCF-7; assay: Crystal violet cytotoxicity assay, MCF-7; format: cell-based; details: Homo sapiens, MCF7, 48 h incubation, triplicate
Procedure: as §1, §2

[3] = tested on: HEK293; assay: Crystal violet cytotoxicity assay, HEK293; format: cell-based; details: Homo sapiens, 48 h incubation, triplicate
Procedure: as §1, §2

[4] = tested on: A431; assay: Crystal violet cytotoxicity assay, A431; format: cell-based; details: Homo sapiens, A-431, 48 h incubation, triplicate
Procedure: as §1, §2

[5] = tested on: A549; assay: Crystal violet cytotoxicity assay, A549; format: cell-based; details: Homo sapiens, 48 h incubation, triplicate
Procedure: as §1, §2

[6] = tested on: HeLa cells; assay: Live-cell confocal imaging of cell uptake; format: cell-based, human; details: 3 h incubation, confocal microscopy
Procedure: FIG. b 17 illustrates confocal microscopic studies (λex=405 nm; collection range=420-470 nm) for uptake of 18ac in HeLa cells, according to the embodiments as disclosed herein. • a) Confocal fluorescent image of HeLa cells after 3 h incubation with 10 μM concentration of 18ac (20× magnification, 2× zoom); • b) DIC image of HeLa cells • c) Overlay of (a) and (b) • d) Confocal image of HeLa cells after 3 h incubation with 100 nM concentration of 18ac (20× magnification, 2× zoom) • e) DIC image of HeLa cells • f) Overlay of (d) and (e).
To further evaluate cell uptake of the novel carbolines, live-cell imaging experiment was performed. HeLa cells were plated in a 4-well confocal dish (cell count=10^4 cells per well) and incubated for 48 h at 37° C. under 5% CO2. After 3 h of incubation with 18ac (10 nM, 100 nM, 1 μM, 10 μM, and 100 μM), cellular uptake and distribution were monitored by using confocal microscopy (λex=405 nm; collection range=420-470 nm).

[7] = Stability in polar solvent (HRMS footnote); format: physicochemical; details: HRMS recording
[8] = tested on: Mycobacterium smegmatis; assay: In vitro Mycobacterium strains killing assay, M. smegmatis; format: cell-based

COC(=O)c1cc2c(c(-c3cc4ccccc4n3C)n1)c1ccccc1n2C
melting point: 210 to 212 °C

CCOC(=O)c1cc2c(c(-c3cc4ccccc4n3C)n1)c1ccccc1n2C
melting point: 175 to 177 °C

COC(=O)c1cc2c(c(-c3cc4ccccc4n3Cc3ccccc3)n1)c1ccccc1n2Cc1ccccc1
melting point: 168 to 170 °C

COC(=O)c1cc2c(c(-c3cc4cc(OC)ccc4n3C)n1)c1cc(OC)ccc1n2C
melting point: 160 to 162 °C

COC(=O)c1cc2occc2c(-c2ccco2)n1
melting point: 95 to 97 °C

CC(C)(C)OC(=O)c1cc2occc2c(-c2ccco2)n1
melting point: 78 to 80 °C

COC(=O)c1cc2oc3ccccc3c2c(-c2cc3ccccc3o2)n1
melting point: 163 to 165 °C

CCOC(=O)c1cc2oc3ccccc3c2c(-c2cc3ccccc3o2)n1
melting point: 141 to 143 °C

CC(C)(C)OC(=O)c1cc2oc3ccccc3c2c(-c2cc3ccccc3o2)n1
melting point: 100 to 102 °C

COC(=O)c1cc2c(ccn2Cc2ccccc2)c(-c2cccn2Cc2ccccc2)n1
melting point: 134 to 136 °C

COC(=O)c1cc2c(ccn2S(=O)(=O)c2ccc(C)cc2)c(-c2cccn2S(=O)(=O)c2ccc(C)cc2)n1
melting point: 120 to 122 °C

COC(=O)c1cc2c(ccn2S(=O)(=O)c2ccccc2)c(-c2cccn2S(=O)(=O)c2ccccc2)n1
melting point: 104 to 106 °C

Cn1c(-c2nc(C(=O)OC(C)(C)C)cc3c2c2ccccc2n3C)cc2ccccc21 [18ac, Tert-butyl 5-methyl-1-(1-methyl-1H-indol-2-yl)-5H-pyrido[4,3-b]indole-3-carboxylate]
IC50 [1]: 4.89 µM
IC50 [2]: 5.59 µM
IC50 [3]: 2.29 µM
IC50 [4]: 4.89 µM
IC50 [5]: 4.62 µM
cellular uptake ([6]; 100 nM concentration): nominal uptake
cellular uptake ([6]; 10 μM concentration): Decent cytosolic uptake
melting point: 200 to 202 °C

CC(C)(C)OC(=O)c1cc2c(c(-c3cc4ccccc4n3Cc3ccccc3)n1)c1ccccc1n2Cc1ccccc1 [18bc, Tert-butyl 5-benzyl-1-(1-benzyl-1H-indol-2-yl)-5H-pyrido[4,3-b]indole-3-carboxylate]
IC50 [1]: 8.15 µM
IC50 [2]: 7.07 µM
IC50 [3]: 7.14 µM
IC50 [4]: 9.18 µM
IC50 [5]: 5.47 µM
melting point: 148 to 150 °C

COC(=O)c1cc2c(c(-c3cc4ccccc4n3Cc3ccc(OC)cc3)n1)c1ccccc1n2Cc1ccc(OC)cc1 [18da, Methyl 5-(4-methoxybenzyl)-1-(1-(4-methoxybenzyl)-1H-indol-2-yl)-5H-pyrido[4,3-b]indole-3-carboxylate]
IC50 [1]: 1.3 µM
IC50 [2]: 2.99 µM
IC50 [3]: 6.73 µM
IC50 [4]: 4.47 µM
IC50 [5]: 5.17 µM
melting point: 106 to 108 °C

COC(=O)C1=Cc2c(c3ccccc3n2S(=O)(=O)c2ccc(C)cc2)C(c2cc3ccccc3n2S(=O)(=O)c2ccc(C)cc2)N1 (stereo not shown) [18fa, Methyl 5-tosyl-1-(1-tosyl-1H-indol-2-yl)-2,5-dihydro-1H-pyrido[4,3-b]indole-3-carboxylate]
IC50 [1]: 1.07 µM
IC50 [2]: 3.71 µM
IC50 [3]: 4.98 µM
IC50 [4]: 3.58 µM
IC50 [5]: 4.98 µM
melting point: 205 to 207 °C

NC(=O)c1cc2c(ccn2Cc2ccccc2)c(-c2cccn2Cc2ccccc2)n1 [compound 11, 1-Benzyl-4-(1-benzyl-1H-pyrrol-2-yl)-1H-pyrrolo[3,2-c]pyridine-6-carboxamide]
stability in polar solvent [7]: unstable in polar solvent

Cc1ccc(-c2nc(COCc3cn(CCN4C(=O)C(=O)c5ccccc54)nn3)cc3oc(C)cc23)o1 [compound 26, 1-(2-(4-(((2-Methyl-4-(5-methylfuran-2-yl)furo[3,2-c]pyridin-6-yl)methoxy)methyl)-1H-1,2,3-triazol-1-yl)ethyl)indoline-2,3-dione]
concentration range in which active (antituberculosis activity) [8]: 70 to 100 µM and 50 to 100 µM
